Eight compounds from PubChem BioAssay AID1259407 (Chemical Carcinogenesis Research Information System (CCRIS), 2018) can be followed below.

Activity calls are given as the source filed them. How the calls were made is not given here.

The data set relates to CCRIS mutagenicity, Ames/micronucleus/aberration tests. Briefly: CCRIS mutagenicity studies.
Setting [1] is: Test System: AMES SALMONELLA TYPHIMURIUM, Strain/Indicator: TA98, Metabolic Activation: NONE, Method: STANDARD PLATE.
The mark [2] stands for this setting: Test System: AMES SALMONELLA TYPHIMURIUM, Strain/Indicator: TA100, Metabolic Activation: NONE, Method: STANDARD PLATE.
The mark [3] stands for this setting: Test System: AMES SALMONELLA TYPHIMURIUM, Strain/Indicator: TA1535, Metabolic Activation: NONE, Method: PREINCUBATION
[4] abbreviates: Test System: AMES SALMONELLA TYPHIMURIUM, Strain/Indicator: TA1535, Metabolic Activation: NONE, Method: STANDARD PLATE.
Setting [5] is: Test System: AMES SALMONELLA TYPHIMURIUM, Strain/Indicator: TA1537, Metabolic Activation: NONE, Method: PREINCUBATION

In the case of `C=C(C)C(=O)OCC`, the mutagenic call is “inactive; negative” (Test System: AMES SALMONELLA TYPHIMURIUM, Strain/Indicator: TA98, Metabolic Activation: HAMSTER, LIVER, S-9, AROCLOR 1254 (10%), Method: PREINCUBATION); “inactive; negative” (Test System: AMES SALMONELLA TYPHIMURIUM, Strain/Indicator: TA98, Metabolic Activation: NONE, Method: PREINCUBATION); “inactive; negative” under setting [1]; “inactive; negative” (Test System: AMES SALMONELLA TYPHIMURIUM, Strain/Indicator: TA98, Metabolic Activation: RAT, LIVER, S-9, AROCLOR 1254 (10%), Method: PREINCUBATION); “inactive; negative” (Test System: AMES SALMONELLA TYPHIMURIUM, Strain/Indicator: TA98, Metabolic Activation: RAT, LIVER, S-9, AROCLOR 1254, Method: STANDARD PLATE); “inactive; negative” (Test System: AMES SALMONELLA TYPHIMURIUM, Strain/Indicator: TA98, Metabolic Activation: RAT, LIVER, S-9, SODIUM PHENOBARBITAL, Method: STANDARD PLATE). Besides, the mutagenic call is, setting by setting: (Test System: AMES SALMONELLA TYPHIMURIUM, Strain/Indicator: TA100, Metabolic Activation: HAMSTER, LIVER, S-9, AROCLOR 1254 (10%), Method: PREINCUBATION) “inactive; negative”; (Test System: AMES SALMONELLA TYPHIMURIUM, Strain/Indicator: TA100, Metabolic Activation: NONE, Method: PREINCUBATION) “inactive; negative”; under setting [2], “inactive; negative”; (Test System: AMES SALMONELLA TYPHIMURIUM, Strain/Indicator: TA100, Metabolic Activation: RAT, LIVER, S-9, AROCLOR 1254 (10%), Method: PREINCUBATION) “inactive; negative”; (Test System: AMES SALMONELLA TYPHIMURIUM, Strain/Indicator: TA100, Metabolic Activation: RAT, LIVER, S-9, AROCLOR 1254, Method: STANDARD PLATE) “inactive; negative”; (Test System: AMES SALMONELLA TYPHIMURIUM, Strain/Indicator: TA100, Metabolic Activation: RAT, LIVER, S-9, SODIUM PHENOBARBITAL, Method: STANDARD PLATE) “inactive; negative”. Also, the mutagenic call is, setting by setting: (Test System: AMES SALMONELLA TYPHIMURIUM, Strain/Indicator: TA1535, Metabolic Activation: HAMSTER, LIVER, S-9, AROCLOR 1254 (10%), Method: PREINCUBATION) “inactive; negative”; under setting [3], “inactive; negative”; under setting [4], “inactive; negative”; (Test System: AMES SALMONELLA TYPHIMURIUM, Strain/Indicator: TA1535, Metabolic Activation: RAT, LIVER, S-9, AROCLOR 1254 (10%), Method: PREINCUBATION) “inactive; negative”; (Test System: AMES SALMONELLA TYPHIMURIUM, Strain/Indicator: TA1535, Metabolic Activation: RAT, LIVER, S-9, AROCLOR 1254, Method: STANDARD PLATE) “inactive; negative”; (Test System: AMES SALMONELLA TYPHIMURIUM, Strain/Indicator: TA1535, Metabolic Activation: RAT, LIVER, S-9, SODIUM PHENOBARBITAL, Method: STANDARD PLATE) “inactive; negative”. Also, the mutagenic call is “inactive; negative” (Test System: AMES SALMONELLA TYPHIMURIUM, Strain/Indicator: TA1537, Metabolic Activation: HAMSTER, LIVER, S-9, AROCLOR 1254 (10%), Method: PREINCUBATION); “inactive; negative” under setting [5]; “inactive; negative” (Test System: AMES SALMONELLA TYPHIMURIUM, Strain/Indicator: TA1537, Metabolic Activation: NONE, Method: STANDARD PLATE); “inactive; negative” (Test System: AMES SALMONELLA TYPHIMURIUM, Strain/Indicator: TA1537, Metabolic Activation: RAT, LIVER, S-9, AROCLOR 1254 (10%), Method: PREINCUBATION); “inactive; negative” (Test System: AMES SALMONELLA TYPHIMURIUM, Strain/Indicator: TA1537, Metabolic Activation: RAT, LIVER, S-9, AROCLOR 1254, Method: STANDARD PLATE); “inactive; negative” (Test System: AMES SALMONELLA TYPHIMURIUM, Strain/Indicator: TA1537, Metabolic Activation: RAT, LIVER, S-9, SODIUM PHENOBARBITAL, Method: STANDARD PLATE). For the same compound, the mutagenic call runs as follows: (Test System: AMES SALMONELLA TYPHIMURIUM, Strain/Indicator: TA1538, Metabolic Activation: NONE, Method: STANDARD PLATE) “inactive; negative”; (Test System: AMES SALMONELLA TYPHIMURIUM, Strain/Indicator: TA1538, Metabolic Activation: RAT, LIVER, S-9, AROCLOR 1254, Method: STANDARD PLATE) “inactive; negative”; (Test System: AMES SALMONELLA TYPHIMURIUM, Strain/Indicator: TA1538, Metabolic Activation: RAT, LIVER, S-9, SODIUM PHENOBARBITAL, Method: STANDARD PLATE) “inactive; negative”.

`CC(Br)C(Br)COP(=O)(OCC(Br)C(C)Br)OCC(Br)C(C)Br` (stereo not given): the mutagenic call (Test System: AMES SALMONELLA TYPHIMURIUM, Strain/Indicator: TA100, Metabolic Activation: RAT, LIVER, MICROSOMES, PHENOBARBITAL, Method: PREINCUBATION) is “active; positive” and the mutagenic call (Test System: AMES SALMONELLA TYPHIMURIUM, Strain/Indicator: TA100, Metabolic Activation: RAT, LIVER, MICROSOMES, Method: PREINCUBATION) was “active; positive”.

`c1ccc2c(c1)-c1cc3ccc4ccccc4c3cc1[C@H]1N[C@@H]21`: the mutagenic call by setting is: under setting [1], “active; positive”; under setting [2], “active; positive”.

Consider `CNNC`, for which the mutagenic call reads like this: (Test System: AMES SALMONELLA TYPHIMURIUM, Strain/Indicator: TA102, Metabolic Activation: NONE, Method: PREINCUBATION) “inactive; negative”; (Test System: AMES SALMONELLA TYPHIMURIUM, Strain/Indicator: TA102, Metabolic Activation: NONE, Method: STANDARD PLATE) “inactive; negative”; under setting [3], “inactive; negative”; under setting [4], “inactive; negative”; (Test System: AMES SALMONELLA TYPHIMURIUM, Strain/Indicator: TA1535, Metabolic Activation: RAT, LIVER, S-9, AROCLOR 1254, Method: PREINCUBATION) “inactive; negative”; under setting [5], “inactive; negative”. Further, the mutagenic call runs as follows: (Test System: AMES SALMONELLA TYPHIMURIUM, Strain/Indicator: TA1537, Metabolic Activation: RAT, LIVER, S-9, AROCLOR 1254, Method: PREINCUBATION) “inactive; negative”; (Test System: AMES SALMONELLA TYPHIMURIUM, Strain/Indicator: TA2638, Metabolic Activation: NONE, Method: STANDARD PLATE) “active; positive”; (Test System: AMES SALMONELLA TYPHIMURIUM, Strain/Indicator: YG7108, Metabolic Activation: NONE, Method: STANDARD PLATE) “active; positive”; (Test System: E. COLI, Strain/Indicator: WP2 (PKM101), Metabolic Activation: NONE, Method: STANDARD PLATE) “active; positive”; (Test System: E. COLI, Strain/Indicator: WP2 UVRA (PKM101), Metabolic Activation: NONE, Method: STANDARD PLATE) “active; positive”.

For the compound `CC(=O)Oc1cccc2cccnc12`, for the setting “Test System: AMES SALMONELLA TYPHIMURIUM, Strain/Indicator: TA100, Metabolic Activation: S-9, Method: PREINCUBATION”, the mutagenic call was “inactive; negative”.

Turning to `O=C(CCCl)N=c1sn(C(=O)CCCl)c2ccccc12`, for the setting “Test System: AMES SALMONELLA TYPHIMURIUM, Strain/Indicator: TA100, Metabolic Activation: S-9, Method: STANDARD PLATE”, the mutagenic call is “inactive; negative”.

Consider `CC(=O)N(C(C)=O)c1ccc(C)c(N=Nc2ccccc2C)c1`, for which the mutagenic call was “inactive; negative” (Test System: AMES SALMONELLA TYPHIMURIUM, Strain/Indicator: TA98, Metabolic Activation: NONE, Method: SUSPENSION/PLATE); “inactive; negative” (Test System: AMES SALMONELLA TYPHIMURIUM, Strain/Indicator: TA98, Metabolic Activation: RAT, LIVER, S-9, PHENOBARBITAL AND 5,6-BENZOFLAVONE, Method: SUSPENSION/PLATE); “inactive; negative” (Test System: AMES SALMONELLA TYPHIMURIUM, Strain/Indicator: TA100, Metabolic Activation: NONE, Method: SUSPENSION/PLATE); “inactive; negative” (Test System: AMES SALMONELLA TYPHIMURIUM, Strain/Indicator: TA100, Metabolic Activation: RAT, LIVER, S-9, PHENOBARBITAL AND 5,6-BENZOFLAVONE, Method: SUSPENSION/PLATE).

For the compound `C/C=C1\CC(C)C(C)(OC(C)=O)C(=O)OCC2=C3C(CC[N+]3(C)C=C2)OC1=O` (stereo not given), the mutagenic call reads like this: (Test System: AMES SALMONELLA TYPHIMURIUM, Strain/Indicator: TA100, Metabolic Activation: HAMSTER, LIVER, S-9, PCB, Method: PREINCUBATION) “active; positive”; (Test System: AMES SALMONELLA TYPHIMURIUM, Strain/Indicator: TA100, Metabolic Activation: RAT, LIVER, S-9, PCB, Method: PREINCUBATION) “active; positive”.
